{
  "source": "paper PMC7931078",
  "about": "(Molecules, 2021)",
  "origin": "cited, not measured here",
  "test_system": "Mtb",
  "parameters": "method as in PMID 29487031",
  "conditions": "first line treatment regimen; cited from earlier work",
  "data": [
    {"smiles": "CC[C@@H](CO)NCCN[C@@H](CC)CO", "note": "[ethambutol]", "values": [
      {"measurement": "MIC", "value": 15, "unit": "µM"}
    ]}
  ]
}
